Experiments:
Assay in all cases: relative viability (nuclei count vs DMSO), 5 days (fraction); higher = more cells survive
SW 1573 = system: SW 1573
How it was run: (§1)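 Dosing by pin tool came one day after lung cancer cell lines were seeded in 1536-well plates, using either one drug or a fixed anchor-drug dose plus five library-drug doses (not always all listed) in √10 steps. After 5 days, nuclei were counted on 4× images. Relative viability is treated-well nuclei count divided by vehicle-well nuclei count, and values are medians of duplicate plates.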

NCI-H1650 = system: NCI-H1650
How it was run: as §1

LK-2 = system: LK-2
How it was run: as §1

NCI-H3122 = system: NCI-H3122
How it was run: as §1

NCI-H596 = system: NCI-H596
How it was run: as §1

NCI-H2228 = system: NCI-H2228
How it was run: as §1

NCI-H838 = system: NCI-H838
How it was run: as §1

NCI-H1666 = system: NCI-H1666
How it was run: as §1

NCI-H358 = system: NCI-H358
How it was run: as §1

NCI-H1355 = system: NCI-H1355
How it was run: as §1

NCI-H322M = system: NCI-H322M
How it was run: as §1

NCI-H520 = system: NCI-H520
How it was run: as §1

ChaGo-K-1 = system: ChaGo-K-1
How it was run: as §1

NCI-H1755 = system: NCI-H1755
How it was run: as §1

NCI-H1944 = system: NCI-H1944
How it was run: as §1

NCI-H650 = system: NCI-H650
How it was run: as §1

NCI-H2085 = system: NCI-H2085
How it was run: as §1

EKVX = system: EKVX
How it was run: as §1

H3255 = system: H3255
How it was run: as §1

NCI-H2347 = system: NCI-H2347
How it was run: as §1

NCI-H441 = system: NCI-H441
How it was run: as §1

A-427 = system: A-427
How it was run: as §1

NCI-H460 = system: NCI-H460
How it was run: as §1

What does the source list for `O=c1[nH]c2ccccc2n1C1CCN(CCCC(c2ccc(F)cc2)c2ccc(F)cc2)CC1` [Pimozide] + Cc1nc(Nc2ncc(C(=O)Nc3c(C)cccc3Cl)s2)cc(N2CCN(CCO)CC2)n1 [Dasatinib] (partner 0.075 µM)?
relative viability (SW 1573; first compound 0.08 µM): 0.522; relative viability (SW 1573; first compound 0.253 µM): 0.447; relative viability (SW 1573; first compound 0.8 µM): 0.5; relative viability (SW 1573; first compound 2.53 µM): 0.437; relative viability (SW 1573; first compound 8 µM): 0.692; relative viability (NCI-H1650; first compound 0.08 µM): 0.274; relative viability (NCI-H1650; first compound 0.253 µM): 0.282; relative viability (NCI-H1650; first compound 0.8 µM): 0.337; relative viability (NCI-H1650; first compound 2.53 µM): 0.298; relative viability (NCI-H1650; first compound 8 µM): 0.239; relative viability (LK-2; first compound 0.08 µM): 0.33; relative viability (LK-2; first compound 0.253 µM): 0.273; relative viability (LK-2; first compound 2.53 µM): 0.242; relative viability (LK-2; first compound 8 µM): 0.24; relative viability (NCI-H3122; first compound 0.08 µM): 0.885; relative viability (NCI-H3122; first compound 0.253 µM): 0.861; relative viability (NCI-H3122; first compound 0.8 µM): 0.385; relative viability (NCI-H3122; first compound 2.53 µM): 0.851; relative viability (NCI-H3122; first compound 8 µM): 0.688; relative viability (NCI-H596; first compound 0.08 µM): 0.565; relative viability (NCI-H596; first compound 0.253 µM): 0.572; relative viability (NCI-H596; first compound 0.8 µM): 0.624; relative viability (NCI-H596; first compound 2.53 µM): 0.553; relative viability (NCI-H596; first compound 8 µM): 0.662; relative viability (NCI-H2228; first compound 0.08 µM): 0.524; relative viability (NCI-H2228; first compound 0.253 µM): 0.604; relative viability (NCI-H2228; first compound 0.8 µM): 0.448; relative viability (NCI-H2228; first compound 2.53 µM): 0.345; relative viability (NCI-H2228; first compound 8 µM): 0.315; relative viability (NCI-H838; first compound 0.08 µM): 0.266; relative viability (NCI-H838; first compound 0.253 µM): 0.282; relative viability (NCI-H838; first compound 0.8 µM): 0.225; relative viability (NCI-H838; first compound 2.53 µM): 0.302; relative viability (NCI-H838; first compound 8 µM): 0.279; relative viability (NCI-H1666; first compound 0.08 µM): 0.752; relative viability (NCI-H1666; first compound 0.253 µM): 0.814; relative viability (NCI-H1666; first compound 0.8 µM): 0.82; relative viability (NCI-H1666; first compound 2.53 µM): 0.708; relative viability (NCI-H1666; first compound 8 µM): 0.684; relative viability (NCI-H358; first compound 0.08 µM): 0.16; relative viability (NCI-H358; first compound 0.253 µM): 0.199; relative viability (NCI-H358; first compound 0.8 µM): 0.157; relative viability (NCI-H358; first compound 2.53 µM): 0.156; relative viability (NCI-H358; first compound 8 µM): 0.172; relative viability (NCI-H1355; first compound 0.08 µM): 0.744; relative viability (NCI-H1355; first compound 0.253 µM): 0.722; relative viability (NCI-H1355; first compound 0.8 µM): 0.671; relative viability (NCI-H1355; first compound 2.53 µM): 0.672; relative viability (NCI-H1355; first compound 8 µM): 0.732; relative viability (NCI-H322M; first compound 0.253 µM): 0.234; relative viability (NCI-H322M; first compound 0.8 µM): 0.247; relative viability (NCI-H322M; first compound 2.53 µM): 0.257; relative viability (NCI-H322M; first compound 8 µM): 0.231; relative viability (NCI-H520; first compound 0.08 µM): 0.216; relative viability (NCI-H520; first compound 0.253 µM): 0.184; relative viability (NCI-H520; first compound 0.8 µM): 0.185; relative viability (NCI-H520; first compound 2.53 µM): 0.176; relative viability (NCI-H520; first compound 8 µM): 0.225; relative viability (ChaGo-K-1; first compound 0.08 µM): 0.613; relative viability (ChaGo-K-1; first compound 0.253 µM): 0.586; relative viability (ChaGo-K-1; first compound 0.8 µM): 0.509; relative viability (ChaGo-K-1; first compound 2.53 µM): 0.522; relative viability (ChaGo-K-1; first compound 8 µM): 0.595; relative viability (NCI-H1755; first compound 0.08 µM): 0.372; relative viability (NCI-H1755; first compound 0.253 µM): 0.446; relative viability (NCI-H1755; first compound 0.8 µM): 0.426; relative viability (NCI-H1755; first compound 2.53 µM): 0.456; relative viability (NCI-H1755; first compound 8 µM): 0.348; relative viability (NCI-H1944; first compound 0.08 µM): 0.212; relative viability (NCI-H1944; first compound 0.253 µM): 0.203; relative viability (NCI-H1944; first compound 0.8 µM): 0.183; relative viability (NCI-H1944; first compound 2.53 µM): 0.225; relative viability (NCI-H1944; first compound 8 µM): 0.197; relative viability (NCI-H650; first compound 0.08 µM): 0.501; relative viability (NCI-H650; first compound 0.253 µM): 0.454; relative viability (NCI-H650; first compound 0.8 µM): 0.453; relative viability (NCI-H650; first compound 2.53 µM): 0.487; relative viability (NCI-H650; first compound 8 µM): 0.498; relative viability (NCI-H2085; first compound 0.08 µM): 0.209; relative viability (NCI-H2085; first compound 0.253 µM): 0.249; relative viability (NCI-H2085; first compound 0.8 µM): 0.221; relative viability (NCI-H2085; first compound 2.53 µM): 0.232; relative viability (NCI-H2085; first compound 8 µM): 0.257; relative viability (EKVX; first compound 0.253 µM): 0.489; relative viability (EKVX; first compound 0.8 µM): 0.544; relative viability (EKVX; first compound 2.53 µM): 0.536; relative viability (EKVX; first compound 8 µM): 0.688; relative viability (H3255; first compound 0.253 µM): 0.355; relative viability (H3255; first compound 0.8 µM): 0.51; relative viability (H3255; first compound 2.53 µM): 0.446; relative viability (H3255; first compound 8 µM): 0.323; relative viability (NCI-H2347; first compound 0.253 µM): 0.34; relative viability (NCI-H2347; first compound 0.8 µM): 0.295; relative viability (NCI-H2347; first compound 2.53 µM): 0.349; relative viability (NCI-H2347; first compound 8 µM): 0.343; relative viability (NCI-H441; first compound 0.08 µM): 0.86; relative viability (NCI-H441; first compound 0.253 µM): 0.724; relative viability (NCI-H441; first compound 0.8 µM): 0.605; relative viability (NCI-H441; first compound 2.53 µM): 0.387; relative viability (NCI-H441; first compound 8 µM): 0.521; relative viability (A-427; first compound 0.08 µM): 0.697; relative viability (A-427; first compound 0.253 µM): 0.701; relative viability (A-427; first compound 0.8 µM): 0.681; relative viability (A-427; first compound 2.53 µM): 0.654; relative viability (A-427; first compound 8 µM): 0.665; relative viability (NCI-H460; first compound 0.08 µM): 0.537; relative viability (NCI-H460; first compound 0.253 µM): 0.486; relative viability (NCI-H460; first compound 0.8 µM): 0.529; relative viability (NCI-H460; first compound 2.53 µM): 0.483; relative viability (NCI-H460; first compound 8 µM): 0.447

Source: the supplement of paper PMC10307832
